Experimental data reported in patent US12507721B2, “Ready-to-use parenteral nutrition formulation” (BAXTER INTERNATIONAL INC., priority 2021, dated 2025).
Marks after values point to notes of the source that are not given here.

Columns and labels:
Assay type in all cases: physicochemical
[1] = Vitamin B12 stability in mixed micelle solutions; details: both mixed micelle solutions (Vit A, Vit B); steam or water spray sterilization
Experimental: For testing the stability of vitamin B12 in formulation as they are typically used in parenteral nutrition, a 35% glucose solution, a 14.2% amino acid formulation such as found, for example, in Olimel N9E (Baxter), and a 20% lipid emulsion such as found in Clinoleic 20% (Baxter) were supplemented with different vitamin combinations which always included vitamin B12. KCl was added into the glucose solution to understand if it has an effect on the stability of vitamin B12. Vitamin B1 was introduced as thiamin HCl. Ascorbyl palmitate was added to the lipid emulsion formulation as a stabilizing agent due to its antioxidant properties. In addition, two separate micellar solutions (“Vit A” and “Vit B”, see Table 9) comprising certain vitamins to be assessed with regard to degradation (B3, B6, B8, B9, B12, C) but formulated with different excipients as micellization agents were tested for vitamin B12 stability. Vit A consisted of a solution of mixed micelles with ascorbyl palmitate as a potential stability enhancer. […]
Accordingly, mixed micelles solutions having smaller volumes (25 ml or 50 ml, see Table 9) were produced according to known methods. […] The mixed micelles solutions from Table 5 were then sterilized according to Cycles 1, 2, 3 and 4 as described before and the degradation of vitamin B12 during sterilization and subsequent storage was monitored as described before.

[2] = Vitamin stability in 35% glucose solution during sterilization and storage; details: 35% glucose solution; for T1M40° C. concentration: 1 month at 40° C.; for T3M40° C. concentration: 3 months at 40° C.; for T6M40° C. concentration: 6 months at 40° C., B12 value (*) is the sum of cyanocobalamin and hydroxocobalamin
Experimental: (§1) For testing the stability of vitamin B12 in formulation as they are typically used in parenteral nutrition, a 35% glucose solution, a 14.2% amino acid formulation such as found, for example, in Olimel N9E (Baxter), and a 20% lipid emulsion such as found in Clinoleic 20% (Baxter) were supplemented with different vitamin combinations which always included vitamin B12. KCl was added into the glucose solution to understand if it has an effect on the stability of vitamin B12. Vitamin B1 was introduced as thiamin HCl. Ascorbyl palmitate was added to the lipid emulsion formulation as a stabilizing agent due to its antioxidant properties. In addition, two separate micellar solutions (“Vit A” and “Vit B”, see Table 9) comprising certain vitamins to be assessed with regard to degradation (B3, B6, B8, B9, B12, C) but formulated with different excipients as micellization agents were tested for vitamin B12 stability. Vit A consisted of a solution of mixed micelles with ascorbyl palmitate as a potential stability enhancer. Vit B was formulated with a mix of polysorbates, PEG and sorbitol to form micelles. The micellar solutions were prepared by mixing, under high speed, a solution composed of glycocholic acid and lecithins dissolved in water. In case of Vit B, the glycocholic acid and lecithin were replaced by PEG and polysorbate. All formulations were provided in standard flexible containers and overpouched with an aluminum overpouch for subsequent sterilization. For an overview over formulations and conditions see Table 9.
(§2) All samples were submitted to two different sterilization technologies. Steam sterilization targeting a F0=8 min was used for large volumes (400/800 ml, Cycle 2) and for small volumes (25/50 ml, Cycle 1) as lined out in Table 9 above. The same samples were sterilized by water spray sterilization with a serial tower continuous sterilization equipment with two different exposure times (Cycles 3 (25 min.) and 4 (19 min.)).
(§3) The vitamin recovery was then compared between the different sterilization cycles and formulations to understand the impact of the formulation and the sterilization technology used on their respective short- and long-term stability. Therefore, after sterilization, the samples were stored at 40° C./25% RH for 6 months to evaluate the recovery of vitamin B12 at T1M, T3M and T6M. Besides, backup samples were stored at 5° C. Finally, some samples were also stored at 25° C./40% RH to provide for real time stability data.

[3] = Impact of pH on the stability of vitamin B12; details: 6 months at 40° C.
[4] = Vitamin B12 stability in dedicated formulations (Batches 1 to 4); details: aqueous formulation, optimized conditions (oxygen content, pH, sterilization method)
Experimental: Table 16 provides for the various batches which were prepared for testing the stability of vitamin B12 in each setting.
For Batches 1 to 3, concentrated emulsions (40%) were diluted with a factor of 8. The vitamin bulk was used to dilute the emulsion from 40% to 5%. The pH was adjusted at 5.9 with a citrate buffer for Batch 1 and a phosphate buffer for Batch 2. An adjustment to pH 6.5 was performed for Batch 3 with HCl. The final volume was provided by adding Milli-Q water. In case of Batches 2 and 3, EDTA and PVP K17 were added before filling up to the final volume. The emulsions were filtered with a 4.5 μm filter before filling. Flushing of the solutions using N2 was performed before starting the filling of each batch. The Batches were manufactured under exclusion of light and oxygen. The dissolved oxygen was measured at the beginning of the filling to ensure it remains <1.0 ppm. The headspace volume was set as small as possible (≤10 mL) and the filling volume limits was 100 mL per monobag, ±2 mL. To avoid any risk of vitamin degradation, an aluminum overpouch was used to protect each monobag. An oxygen absorber was placed between primary bag and overpouch. Seals were inspected before sterilization rack loading. Four samples per Batch were kept unsterilized for Batches 1 through 4. […]

[5] = Vitamin B12 stability in 20% lipid emulsion during sterilization and storage; details: for T1M40° C. concentration: 1 month at 40° C.; for T6M40° C. concentration: 6 months at 40° C., sum of cyanocobalamin and hydroxocobalamin
Experimental: as §1, §2, §3
Vitamin B12 was also considerably degraded in the lipid emulsion (Tables 12 through 15). […] The instability of vitamin B12 in the standard lipid emulsions is probably linked to the presence of ascorbyl palmitate, which is generally present as an antioxidant. It should thus be avoided in formulations according to the invention.

[6] = 25 ml, Cycle 1 steam sterilization
[7] = 800 ml, Cycle 2 steam sterilization
[8] = 800 ml, Cycle 3 water spray sterilization
[9] = 800 ml, Cycle 4 water spray sterilization

degradation after sterilization and subsequent storage [1]: almost complete degradation | Unsterilized T0 concentration ([2]; 25 ml (Table 10A)): 0.0062 mg/L | T1M40° C. concentration [2, 6]: 0.0045 mg/L | T3M40° C. concentration [2, 6]: 0.0037 mg/L | Unsterilized T0 concentration ([2]; 800 ml (Table 10B)): 0.0062 mg/L | Unsterilized T0 concentration ([2]; 800 ml (Table 11A)): 0.006 mg/L | Unsterilized T0 concentration ([2]; 800 ml (Table 11B)): 0.006 mg/L | T1M40° C. concentration [2, 7]: 0.0040 mg/L | T3M40° C. concentration [2, 7]: 0.0036 mg/L | Cycle 3 T0 concentration ([2]; 800 ml, Cycle 3 water spray sterilization, C0 = 25 minutes, after sterilization): 0.0051 mg/L | T3M40° C. concentration [2, 8]: 0.0041 mg/L | T6M40° C. concentration [2, 8]: 0.0023* mg/L | Cycle 4 T0 concentration ([2]; 800 ml, Cycle 4 water spray sterilization, C0 = 19 minutes, after sterilization): 0.0052 mg/L | T3M40° C. concentration [2, 9]: 0.0041 mg/L | T6M40° C. concentration [2, 9]: 0.0031* mg/L | vitamin B12 (cyanocobalamin plus hydroxocobalamin) recovered ([3]; Batch 1: 5% olive oil emulsion, pH 7.0, C0=40 min): 53.8% | vitamin B12 (cyanocobalamin plus hydroxocobalamin) recovered ([3]; Batch 2: 5% olive oil emulsion, pH 5.9, C0=80 min): 138% | stability of vitamin B12 in Batch 4 [4]: remains stable up to T7M40 °C | Unsterilized T0 concentration ([5]; 20% lipid emulsion (Table 14)): 0.014 mg/L | Unsterilized T0 concentration ([5]; 20% lipid emulsion (Table 15)): 0.014 mg/L | Unsterilized T0 concentration ([5]; 20% lipid emulsion with ascorbyl palmitate (Table 12)): 0.015 mg/L | T1M40° C. concentration ([5]; 20% lipid emulsion, Cycle 1 steam sterilization): 0.004 mg/L | T3M40° C. concentration ([5]; 20% lipid emulsion, Cycle 1 steam sterilization, 3 months at 40° C.): <LOD | T1M40° C. concentration ([5]; 20% lipid emulsion, Cycle 2 steam sterilization): <LOD | Cycle 2 T0 concentration ([5]; 20% lipid emulsion, Cycle 2 steam sterilization, after sterilization): 0.005 mg/L | T6M40° C. concentration ([5]; 20% lipid emulsion, Cycle 3 water spray sterilization (Table 14)): 0.0037* mg/L | Cycle 3 T0 concentration ([5]; 20% lipid emulsion, Cycle 3 water spray sterilization (Table 14), after sterilization): 0.005 mg/L | T6M40° C. concentration ([5]; 20% lipid emulsion, water spray sterilization (Table 15, head: Cycle 3)): 0.0055* mg/L | Cycle 3 T0 concentration ([5]; 20% lipid emulsion, water spray sterilization with serial tower continuous sterilization equipment (Table 15, head: Cycle 3), after sterilization): 0.006 mg/L
Substance: cobalamin [Batch B12]
